In publication PMC10695737, “Crystal Modifications of a Cyclic Guanosine Phosphorothioate Analogue, a Drug Candidate for Retinal Neurodegenerations” (ChemistryOpen, 2023):
Values after ≈ are worked out from the molar mass of the structure shown. Values joined by “and” are separate entries in the source; they are usually repeats but may differ in a detail not shown here. Identical values can stand only once.

Key:
Type in all cases: physicochemical
[1] = Dynamic vapor sorption (DVS), water sorption as Δm; settings: for Water sorption Δm: 25 °C; for Observed Δm: DVS step compared to theoretical hydrate mass change; for Stable %RH range: RH range of the corresponding hydrate step on DVS; for change in mass (Δm): at 95 % relative humidity (maximum RH), stated in text; for Δm after desorption: equilibrated value after desorption cycles
Procedure: The samples were analyzed at 25 °C with a Surface Measurements Systems DVS Advantage. A sample was weighted into a weighing pan and its mass was monitored while it was exposed to different relative humidities (%RH=%P/P0). Before the analysis, the weighing pan was subject to an antistatic program.
The analysis program consisted of two cycles. In each cycle, the relative humidity was increased stepwise up to 95 % RH (starting from 0 % RH, 9 steps with 10 % and one step with 5 %) and then decreased stepwise to 0 % RH again. In both sorption/desorption cycles, at each step, the sample was kept at the set relative humidity until dm/dt <0.002 %, over 15 min.

[2] = Thermal analysis (DSC/TGA), decomposition; settings: for Onset of decomposition (DSC exotherm): DSC 25 to 300 °C, 10 °C/min
Procedure: Differential scanning calorimetry (DSC) analyses were carried out on a Mettler DSC822e, equipped with a Thermo Haake EK45/MT cooler. The samples were weighed into a 40 μL Al‐cup, which were then closed with a pierced lid. The sample was scanned from 25 to 300 °C, with a scan rate of 10 °C/min.
Thermogravimetric analysis (TGA) was performed on a Mettler TGA/SDTA 851e, equipped with a Haake C50P cooler. Alternatively, thermogravimetric and DSC analyses were carried out simultaneously in a Mettler Toledo TGA/DSC 3+. The samples were weighed into a 100 μL Al‐cup and this was flushed with dry nitrogen gas during the analysis. The sample was scanned from 25 to 300 °C, with a scan rate of 10 °C/min.

[3] = Phase solubility in deionized water (HPLC); settings: for pH of mixture: aqueous solubility measurements; for solubility at 24 h: deionized water, thermodynamic from solid
Procedure: (§1) The pH‐solubility profile of cGMPSA salts and free acid was determined by phase solubility techniques.[18] Briefly, saturated mixtures of the compound were prepared by adding excess amount to 4 mL vials containing 2 mL deionized water, an acidic buffer (0.1 M HCl(aq), pH 1), or a basic buffer (0.1 M NaOH(aq), pH 13). They were allowed to equilibrate for 24 h using mild agitation before recording the pH. The clear solution was separated from the solids by filtration with a Cytiva Whatman™ Mini‐Uniprep™ polypropylene 0.45 μm filter device and diluted to an appropriate analytical concentration where needed. The sample was then analyzed by HPLC, and the solubility determined by integrating the area of the peak of interest against a standard curve. The solids were also analyzed by XRPD to record the crystal modification obtained.

[4] = pH-dependent solubility in basic buffer NaOH(aq); settings: 0.1 M NaOH(aq) basic buffer, aqueous buffer, thermodynamic from solid, pH 13, read-out: Solubility in 0.1M NaOH(aq), mg / mL (SD)
Procedure: as §1

[5] = pH-dependent solubility in acidic buffer 0.1 M HCl(aq); settings: 0.1 M HCl(aq) acidic buffer, simulated gastric fluid, thermodynamic from solid, pH 1, read-out: Solubility in 0.1M HCl(aq), µg / mL (SD)
Procedure: as §1

[6] = Polymorph screen, approximate solubility in solvents (UHPLC); settings: thermodynamic from solid
Procedure: A polymorph screen was done for cGMPSA‐TEA with a similar approach. An excess of the compound was slurried in a range of solvents, typically 20–40 mg in 1 mL. For screens where enough solid material was obtained, it was analyzed by XRPD to record the crystal modification.

[7] = 0 % RH, after final desorption cycle 2 (D2)
[8] = 30 % RH, desorption cycle 2 (D2)
[9] = 60 % RH, desorption cycle 2 (D2)
[10] = 95 % RH, desorption cycle 2 (D2)
[11] = hydrate step stable over 40–70 % RH
[12] = hydrate step stable over 60–95 % RH

O=c1c2nc(Br)n([C@@H]3O[C@@H]4COP(=O)([S-])O[C@H]4[C@H]3O)c2nc2[nH]c(-c3ccccc3)cn12.O=c1c2nc(Br)n([C@@H]3O[C@@H]4COP(=O)([S-])O[C@H]4[C@H]3O)c2nc2[nH]c(-c3ccccc3)cn12.[Ca+2] (stereo partly drawn) [cGMPSA‐Ca]
Water sorption Δm [1, 7]: 1.9%
Water sorption Δm [1, 8]: 12.4%
Water sorption Δm ([1]; 30 % RH, sorption cycle 1 (S1)): 5.3%
Water sorption Δm [1, 9]: 15.5%
Water sorption Δm ([1]; 60 % RH, sorption cycle 1 (S1)): 7.1%
Water sorption Δm [1, 10]: 22.0%
Water sorption Δm ([1]; 95 % RH, sorption cycle 1 (S1)): 21.9%
Observed Δm [1]: 1.9%
Stable %RH range [1]: 0 %RH
change in mass (Δm) [1]: 22%
enthalpy of decomposition ([2]; DSC): 162.3 J/g
Onset of decomposition (DSC exotherm) [2]: 253.2 °C
pH of mixture ([3]; supplement): 6,88
pH at saturation solubility ([3]; deionized H2O, quadruplicates): 6.9 (±0.5)
solubility ([3]; deionized H2O, quadruplicates): 0.28 (±0.2) mg/mL

NC(CO)(CO)CO.O=c1c2nc(Br)n([C@@H]3O[C@@H]4CO[P@@](O)(=S)O[C@H]4[C@H]3O)c2nc2[nH]c(-c3ccccc3)cn12 [cGMPSA‐Tris, Tris(hydroxymethyl)aminomethane RP-8-Bromo-β-phenyl-1,N2-ethenoguanosine-3′,5′-cyclicmonophosphorothiotic acid]
Water sorption Δm [1, 7]: 3.3%
Water sorption Δm [1, 8]: 5.5%
Water sorption Δm ([1]; 30 % RH, sorption cycle 1 (S1)): 4.9%
Water sorption Δm [1, 9]: 6.8%
Water sorption Δm ([1]; 60 % RH, sorption cycle 1 (S1)): 6.0%
Water sorption Δm [1, 10]: 32.4%
Water sorption Δm ([1]; 95 % RH, sorption cycle 1 (S1)): 32.8%
Observed Δm [1]: 3.3%
Stable %RH range [1]: 0–70 %RH
change in mass (Δm) [1]: 32%
initial early sorption Δm ([1]; consistent with 1 equivalent of H2O): ~3%
Δm after desorption ([1]; 0 % RH): 3.3
pH of mixture ([3]; supplement): 8,45
pH at saturation solubility ([3]; deionized H2O, quadruplicates): 8.5 (±0.1)
solubility ([3]; deionized H2O, quadruplicates): 13.5 (±3.5) mg/mL
solubility ([3]; deionized H2O, quadruplicates, listed as ‐Tris): ~15 mg/mL

O=c1c2nc(Br)n(C3OC4COP(O)(=S)OC4C3O)c2nc2[nH]c(-c3ccccc3)cn12 (stereo not drawn) [cGMPSA‐TEA]
Water sorption Δm [1, 7]: −1.0%
Water sorption Δm [1, 8]: 3.5%
Water sorption Δm ([1]; 30 % RH, sorption cycle 1 (S1)): 3.4%
Water sorption Δm [1, 9]: 4.8%
Water sorption Δm ([1]; 60 % RH, sorption cycle 1 (S1)): 4.0%
Water sorption Δm [1, 10]: 5.2%
Water sorption Δm ([1]; 95 % RH, sorption cycle 1 (S1)): 5.0%
change in mass (Δm) [1]: about 5%
solubility at 24 h [4]: 51600 µg/mL (≈ 95500 µM)
solubility at 24 h [5]: 5 µg/mL (≈ 9.25 µM)
pH of mixture ([3]; supplement): 4,38
pH at saturation solubility ([3]; deionized H2O, quadruplicates): 4.4 (±0.4)
solubility at 24 h ([3]; pH 4.38, water, supplement, read-out: Aqueous solubility measurements): 8900 µg/mL (≈ 16500 µM)
solubility at 24 h ([3]; pH 4.4, water, deionized H2O, quadruplicates, read-out: Solubility): 8800 µg/mL (≈ 16300 µM)
solubility ([6]; aqueous with cosolvent or surfactant or cyclodextrin, solvent EtOH+H2O 1 : 1 v/v, solution): > 40000 µg/mL
solubility ([6]; aqueous with cosolvent or surfactant or cyclodextrin, solvent MeCN+H2O 1 : 1 v/v, solution): > 40000 µg/mL
solubility ([6]; aqueous with cosolvent or surfactant or cyclodextrin, solvent MeOH+H2O 1 : 1 v/v, solution): > 40000 µg/mL
solubility ([6]; aqueous with cosolvent or surfactant or cyclodextrin, solvent THF+H2O 1 : 1 v/v, solution): > 40000 µg/mL
solubility ([6]; organic solvent or mixture, solvent 2‐PrOH): 105 µg/mL (≈ 194 µM)
solubility ([6]; organic solvent or mixture, solvent Acetone): 285 µg/mL (≈ 527 µM)
solubility ([6]; organic solvent or mixture, solvent DMF, solution): > 40000 µg/mL
solubility ([6]; organic solvent or mixture, solvent DMSO, solution): > 40000 µg/mL
solubility ([6]; organic solvent or mixture, solvent Dichloromethane): 30 µg/mL (≈ 55.5 µM)
solubility ([6]; organic solvent or mixture, solvent Diethyl ether): 3 µg/mL (≈ 5.55 µM)
solubility ([6]; organic solvent or mixture, solvent Dimethoxyethane): 15 µg/mL (≈ 27.8 µM)
solubility ([6]; organic solvent or mixture, solvent Dioxane): 30 µg/mL (≈ 55.5 µM)
solubility ([6]; organic solvent or mixture, solvent EtOAc): 5 µg/mL (≈ 9.25 µM)
solubility ([6]; organic solvent or mixture, solvent EtOH): 1610 µg/mL (≈ 2980 µM)
solubility ([6]; organic solvent or mixture, solvent EtOH+THF 1 : 1 v/v, solution): > 40000 µg/mL
solubility ([6]; organic solvent or mixture, solvent MeCN): 114 µg/mL (≈ 211 µM)
solubility ([6]; organic solvent or mixture, solvent MeOH): 40 µg/mL (≈ 74 µM)
solubility ([6]; organic solvent or mixture, solvent MeTHF): 10 µg/mL (≈ 18.5 µM)
solubility ([6]; organic solvent or mixture, solvent THF): 28 µg/mL (≈ 51.8 µM)
solubility ([6]; organic solvent or mixture, solvent i‐PrOAc): 10 µg/mL (≈ 18.5 µM)
solubility ([6]; organic solvent or mixture, solvent n‐BuOH): 210 µg/mL (≈ 389 µM)

O=c1c2nc(Br)n([C@@H]3O[C@@H]4COP(=O)([S-])O[C@H]4[C@H]3O)c2nc2[nH]c(-c3ccccc3)cn12.[Na+] (stereo partly drawn) [cGMPSA‐Na]
Water sorption Δm [1, 7]: −0.3%
Water sorption Δm [1, 8]: 6.3%
Water sorption Δm ([1]; 30 % RH, sorption cycle 1 (S1)): 2.2%
Water sorption Δm [1, 9]: 12.5%
Water sorption Δm ([1]; 60 % RH, sorption cycle 1 (S1)): 8.1%
Water sorption Δm [1, 10]: 15.1%
Water sorption Δm ([1]; 95 % RH, sorption cycle 1 (S1)): 15.1%
Δm after desorption ([1]; 0 % RH): ~ 0
Onset of decomposition (DSC exotherm) [2]: 212 °C
pH of mixture ([3]; supplement): 5,45
pH at saturation solubility ([3]; deionized H2O, quadruplicates): 5.5 (±0.2)
solubility ([3]; deionized H2O, quadruplicates): 38.4 (±11.1) mg/mL
solubility ([3]; deionized H2O, quadruplicates, listed as sodium): 38 mg/mL
solubility ([3]; deionized H2O, quadruplicates, listed as ‐Na): approximately 40 mg/mL

O=c1c2nc(Br)n([C@@H]3O[C@@H]4COP(=O)(S)O[C@H]4[C@H]3O)c2nc2[nH]c(-c3ccccc3)cn12 (stereo partly drawn) [cGMPSA‐H]
Water sorption Δm [1, 7]: 0.3%
Water sorption Δm [1, 8]: 5.7%
Water sorption Δm ([1]; 30 % RH, sorption cycle 1 (S1)): 5.3%
Water sorption Δm [1, 9]: 6.7%
Water sorption Δm ([1]; 60 % RH, sorption cycle 1 (S1)): 6.2%
Water sorption Δm [1, 10]: 9.3%
Water sorption Δm ([1]; 95 % RH, sorption cycle 1 (S1)): 9.1%
Onset of decomposition (DSC exotherm) [2]: 163.6 °C and ~ 163 °C
pH of mixture ([3]; supplement): 2,47
pH at saturation solubility ([3]; deionized H2O, quadruplicates): 2.5 (±0.2)
solubility ([3]; deionized H2O, quadruplicates): 1.7 (±0.1) mg/mL

O=c1c2nc(Br)n([C@@H]3O[C@@H]4CO[P@@](O)(=S)O[C@H]4[C@H]3O)c2nc2[nH]c(-c3ccccc3)cn12.O=c1c2nc(Br)n([C@@H]3O[C@@H]4CO[P@@](O)(=S)O[C@H]4[C@H]3O)c2nc2[nH]c(-c3ccccc3)cn12.c1ccc(CNCCNCc2ccccc2)cc1 [cGMPSA‐BZ, N,N′-Dibenzylethylenediammonium RP-8-Bromo-β-phenyl-1,N2-ethenoguanosine-3′,5′-cyclicmonophosphorothioate (1:2)]
Water sorption Δm [1, 7]: −0.2%
Water sorption Δm [1, 8]: 0.7%
Water sorption Δm ([1]; 30 % RH, sorption cycle 1 (S1)): 0.6%
Water sorption Δm [1, 9]: 3.9%
Water sorption Δm ([1]; 60 % RH, sorption cycle 1 (S1)): 1.9%
Water sorption Δm [1, 10]: 4.7%
Water sorption Δm ([1]; 95 % RH, sorption cycle 1 (S1)): 4.8%
Observed Δm [1, 11]: 1.3%
Observed Δm [1, 12]: 3.9%
Stable %RH range [1, 11]: 40–70 %RH
Stable %RH range [1, 12]: 60–95 %RH
change in mass (Δm) [1]: 5%
change in mass (Δm) ([1]; listed as ‐BZ): about 5%
pH of mixture ([3]; supplement): 6,81
pH at saturation solubility ([3]; deionized H2O, quadruplicates): 6.8 (±0.1)
solubility ([3]; deionized H2O, quadruplicates): 0.01 (±0.01) mg/mL

N.O=c1c2nc(Br)n([C@@H]3O[C@@H]4COP(=O)(S)O[C@H]4[C@H]3O)c2nc2[nH]c(-c3ccccc3)cn12 (stereo partly drawn) [cGMPSA‐NH4]
pH of mixture ([3]; supplement): 3,16
pH at saturation solubility ([3]; deionized H2O, quadruplicates): 3.2 (±0.1)
solubility ([3]; deionized H2O, quadruplicates): 7.9 (±8.0) mg/mL

O=c1c2nc(Br)n([C@@H]3O[C@@H]4CO[P@@](O)(=S)O[C@H]4[C@H]3O)c2nc2[nH]c(-c3ccccc3)cn12.c1ccc(CCNCc2ccccc2)cc1 [cGMPSA‐Bnet, N-(Phenylmethyl)benzeneethanammonium RP-8-Bromo-β-phenyl-1,N2-ethenoguanosine-3′,5′-cyclicmonophosphorothioate]
Water sorption Δm [1, 7]: 0.7%
Water sorption Δm [1, 8]: 4.4%
Water sorption Δm ([1]; 30 % RH, sorption cycle 1 (S1)): 3.4%
Water sorption Δm [1, 9]: 6.1%
Water sorption Δm ([1]; 60 % RH, sorption cycle 1 (S1)): 5.2%
Water sorption Δm [1, 10]: 7.7%
Water sorption Δm ([1]; 95 % RH, sorption cycle 1 (S1)): 8.0%
pH of mixture ([3]; supplement): 7,17
pH at saturation solubility ([3]; deionized H2O, quadruplicates): 7.2 (±0.04)
solubility ([3]; deionized H2O, quadruplicates): 0.05 (±0.03) mg/mL
